Experimental data published in US8192962B2, “Processes for detecting toxic substances” (Daikin Industries, Ltd., priority 2001, dated 2012).

System: Transport facilitation protein genes
Assay: DNA chip mRNA expression in yeast, transport facilitation protein genes (Table 5)
Assay type: cell-based, Saccharomyces cerevisiae S288C
Method in brief: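 In this screen, yeast in logarithmic growth are challenged for two hours with a toxic substance at a non-lethal inhibitory concentration. Their mRNA, converted to Cy3- or Cy5-labeled cDNA, hybridizes at 65° C. to a chip spanning every yeast gene, and expression is expressed as a ratio to untreated cells.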

Measured: The level of expressed mRNA in the presence of chemical substance/The level of expressed mRNA in the absence of chemical substance

Na2As [(1)]
1.6: yeast gene YBR052C | yeast gene YCL038C | yeast gene YCR098C | yeast gene YER053C | yeast gene YFL054C | yeast gene YHL040C | yeast gene YOR153W
1.1: yeast gene YBR068C | yeast gene YBR298C | yeast gene YCL025C | yeast gene YGR138C | yeast gene YGR197C | yeast gene YIL056W | yeast gene YJR077C | yeast gene YLR348C | yeast gene YNL055C | yeast gene YNR072W | yeast gene YOL156W | yeast gene YOR332W | yeast gene YOR348C
1.0: yeast gene YBL030C | yeast gene YDL245C | yeast gene YGR082W | yeast gene YIL006W | yeast gene YOR328W
1.2: yeast gene YDL210W | yeast gene YDR343C | yeast gene YEL027W | yeast gene YFL011W | yeast gene YGR281W | yeast gene YJL219W | yeast gene YOR035C | yeast gene YPL271W
0.3: yeast gene YEL065W
1.4: yeast gene YBR295W | yeast gene YDL198C | yeast gene YKR039W | yeast gene YLR295C
1.9: yeast gene YBR293W
2.2: yeast gene YPR194C
2.5: yeast gene YGL006W | yeast gene YGR055W
0.8: yeast gene YBL099W | yeast gene YBR127C | yeast gene YBR207W | yeast gene YCR024C-A | yeast gene YDL128W | yeast gene YDR345C | yeast gene YDR387C | yeast gene YGL104C | yeast gene YGR065C | yeast gene YGR191W | yeast gene YHR175W | yeast gene YIL022W | yeast gene YJL212C | yeast gene YKL146W | yeast gene YKR067W | yeast gene YMR162C | yeast gene YMR203W | yeast gene YOR130C
0.9: yeast gene YBR132C | yeast gene YGL167C | yeast gene YGR224W | yeast gene YHR026W | yeast gene YIL088C | yeast gene YJR106W | yeast gene YJR121W | yeast gene YPR192W
0.6: yeast gene YDR038C | yeast gene YDR039C | yeast gene YGL008C | yeast gene YGR260W | yeast gene YHL047C | yeast gene YLL028W
2.6: yeast gene YOL119C
0.5: yeast gene YPL036W
2.3: yeast gene YHR092C
6.3: yeast gene YBR294W
2.8: yeast gene YDR342C
0.7: yeast gene YCR037C | yeast gene YDR270W | yeast gene YDR497C | yeast gene YEL063C | yeast gene YFL041W | yeast gene YFL050C | yeast gene YGL255W | yeast gene YHL035C | yeast gene YHR094C | yeast gene YJL034W | yeast gene YLR378C | yeast gene YOR273C | yeast gene YOR316C
1.5: yeast gene YGR096W | yeast gene YKL016C | yeast gene YOL163W | yeast gene YPL134C
1.3: yeast gene YDR086C | yeast gene YDR298C | yeast gene YLR081W | yeast gene YMR011W
